The record followed here is patent publication US7381546B2, “Polyketides and their synthesis and use” (Biotica Technology Limited, priority 1998, dated 2008).

Read-outs that look alike come from different tables or passages of the source.

The series deals with human lymphoblastoid cell lines 536. Put plainly: Tritiated thymidine incorporation (DNA synthesis) bioassay in 536 cells. The note with it: for IC50: after 24 and 48 hours drug exposure, radiolabelled thymidine incorporation (FIG. 4), read-out: ID50% concentration-dependent inhibition of DNA synthesis. Type of series: cell-based. The method, then: Rapamycin induces a specific cell cycle arrest in G1 in the cell line 536, which is a human B lymphocytic line immortalised by Epstein Barr virus infection. The potency of each analogue was compared to that of rapamycin using the 536 cells as a bioassay. The 536 cells (obtained from the human genetic mutant cell repository, Camden, N.J., USA) were cultured in Iscoves medium supplemented with 10% fetal calf serum. For bioassay, 536 cells were seeded into 96 well microtitre plates at 10,000 per well in 100 μl of growth medium. Drug stocks of 1 mM in DMSO were prepared and further dilutions were made to give a constant final concentration of 0.1% DMSO in growth medium. Control cultures were treated with 0.1% DMSO in growth medium; experimental cultures received a final concentration of 10^−7M, 10^−8M, 10^−9M or 10^−10M rapamycin or rapamycin analogue. Each culture was set up in triplicate and replicate plates were labelled with 1 μCi tritiated thymidine (Amersham International, specific activity 70 Ci/mM) per well for 3 h at either Oh; 24 h; or 48 h incubation with drugs. At the respective time points the cultures were harvested onto glass fibre paper to trap the DNA following water lysis; free nucleotides were washed away. Radioactivity incorporated into the filter discs/trapped DNA was counted in a Packard scintillation counter using biodegradable scintillation fluid.
The dose response of human lymphoblastoid cell lines 536 was measured. […] This implies that none of the compounds were toxic to the 536 cell line.

For the molecule 4-hydroxy-prolyl-26-demethoxy-rapamycin, where the note is “0-3 h drug exposure, up to 100 nM (FIG. 3)”, the “effect on DNA synthesis (mean cpm of radiolabelled thymidine incorporated)” value is reported as “no appreciable effect”. Moreover, the “inhibition of DNA synthesis” value (at 100 nM, after 24 and 48 hours (FIG. 4)) is < 50%. As for `COC1CC2CCC(C)C(O)(O2)C(=O)C(=O)N2CCCC2C(=O)OC(C(C)CC2CCC(O)C(OC)C2)CC(=O)C(C)/C=C(\C)C(O)C(OC)C(=O)C(C)CC(C)/C=C/C=C/C=C/1C` (stereo not shown) [prolylrapamycin], the IC50 came to 3 nM. `CO[C@H]1C[C@@H]2CC[C@@H](C)[C@@](O)(O2)C(=O)C(=O)N2CCCC[C@H]2C(=O)O[C@H]([C@H](C)C[C@@H]2CC[C@@H](O)[C@H](OC)C2)CC(=O)[C@H](C)/C=C(\C)[C@@H](O)[C@@H](OC)C(=O)[C@H](C)C[C@H](C)/C=C/C=C/C=C/1C` [rapamycin, reference compound]: the IC50 (Homo sapiens, Lymphoblastoid cell) was 1 nM.
